Earlier results in paper PMC9516332 (Frontiers in Oncology, 2022).
Where two headings read alike, the source gives them in different places.

Tests used:
[1] = molecular target: panel of 255 wild-type kinases (Homo sapiens, UniProt P17612); details: kinase PKACα, 1 µmol/L single concentration, cited from earlier work
[2] = molecular target: panel of 255 wild-type kinases (Homo sapiens, UniProt Q13627); details: kinase DYRK1A, 1 µmol/L single concentration, cited from earlier work
[3] = molecular target: panel of 255 wild-type kinases (Homo sapiens, UniProt P22607); details: kinase FGFR3, 1 µmol/L single concentration, cited from earlier work
[4] = molecular target: panel of 255 wild-type kinases (Homo sapiens, UniProt P53350); details: kinase PLK1, 1 µmol/L single concentration, cited from earlier work
[5] = molecular target: T1, panel of 255 wild-type kinases (Homo sapiens, UniProt P53778); details: p38γ, 1 µmol/L single concentration, cited from earlier work
T1 sequence (P53778 1-367): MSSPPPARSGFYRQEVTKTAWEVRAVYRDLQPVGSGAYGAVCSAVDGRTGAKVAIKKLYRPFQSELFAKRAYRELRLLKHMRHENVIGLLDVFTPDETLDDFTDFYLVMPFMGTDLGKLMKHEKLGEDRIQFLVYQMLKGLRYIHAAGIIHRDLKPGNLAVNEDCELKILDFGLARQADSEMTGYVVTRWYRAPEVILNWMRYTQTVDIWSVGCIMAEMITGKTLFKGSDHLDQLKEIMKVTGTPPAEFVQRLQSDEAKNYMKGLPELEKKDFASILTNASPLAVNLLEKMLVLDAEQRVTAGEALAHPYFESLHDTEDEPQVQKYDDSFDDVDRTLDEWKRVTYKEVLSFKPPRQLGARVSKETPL

[6] = molecular target: panel of 255 wild-type kinases (Homo sapiens, UniProt P31749); details: AKT1 kinase assay, 1 µmol/L single concentration, cited from earlier work
[7] = molecular target: T2, panel of 255 wild-type kinases (Homo sapiens, UniProt O14757); details: CHK1 kinase assay, 1 µmol/L single concentration, cited from earlier work
T2 sequence (O14757 1-476): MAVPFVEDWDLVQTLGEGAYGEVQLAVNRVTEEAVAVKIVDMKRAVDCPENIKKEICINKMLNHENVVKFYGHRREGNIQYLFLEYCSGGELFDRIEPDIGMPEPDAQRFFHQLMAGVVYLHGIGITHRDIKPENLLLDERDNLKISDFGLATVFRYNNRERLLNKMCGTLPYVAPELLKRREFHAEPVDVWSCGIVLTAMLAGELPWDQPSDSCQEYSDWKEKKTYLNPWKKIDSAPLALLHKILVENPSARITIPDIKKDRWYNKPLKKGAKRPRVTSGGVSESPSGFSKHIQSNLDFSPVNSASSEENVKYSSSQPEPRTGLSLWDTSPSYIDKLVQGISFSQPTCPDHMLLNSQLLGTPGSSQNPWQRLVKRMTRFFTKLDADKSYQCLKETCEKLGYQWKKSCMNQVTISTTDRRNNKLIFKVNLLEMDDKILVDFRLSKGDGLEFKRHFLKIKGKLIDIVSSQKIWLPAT

[8] = molecular target: panel of 255 wild-type kinases (Homo sapiens, UniProt Q14012); details: CaMK1α kinase assay, 1 µmol/L single concentration, cited from earlier work
[9] = molecular target: panel of 255 wild-type kinases (Homo sapiens, UniProt Q00534); details: CDK6/CycD3 kinase assay, 1 µmol/L single concentration, cited from earlier work
[10] = molecular target: panel of 255 wild-type kinases (Homo sapiens, UniProt P78368); details: kinase CK1γ2; 1 µmol/L single concentration; ref DOI: 10.1158/1535-7163.MCT-18-0877; cited from earlier work
[11] = molecular target: panel of 255 wild-type kinases (Homo sapiens, UniProt Q7KZI7); details: MARK2, 1 µmol/L single concentration, cited from earlier work
[12] = molecular target: T3, panel of 255 wild-type kinases (Homo sapiens, UniProt Q8IW41); details: MAPKAPK5, 1 µmol/L single concentration, cited from earlier work
T3 sequence (Q8IW41 1-473): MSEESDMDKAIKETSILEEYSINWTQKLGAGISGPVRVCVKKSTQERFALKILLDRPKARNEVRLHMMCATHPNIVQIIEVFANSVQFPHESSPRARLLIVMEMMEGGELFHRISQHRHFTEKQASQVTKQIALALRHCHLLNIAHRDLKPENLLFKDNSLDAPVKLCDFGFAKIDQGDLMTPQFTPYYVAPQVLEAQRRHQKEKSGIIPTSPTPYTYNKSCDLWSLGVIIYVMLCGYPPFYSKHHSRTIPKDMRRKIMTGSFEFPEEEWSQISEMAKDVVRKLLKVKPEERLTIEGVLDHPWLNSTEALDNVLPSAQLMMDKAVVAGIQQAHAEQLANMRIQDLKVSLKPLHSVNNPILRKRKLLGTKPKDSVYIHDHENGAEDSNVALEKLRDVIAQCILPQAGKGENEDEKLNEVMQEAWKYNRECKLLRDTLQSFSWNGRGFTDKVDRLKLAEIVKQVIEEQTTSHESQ

[13] = molecular target: panel of 255 wild-type kinases (Homo sapiens, UniProt Q13177); details: PAK2, 1 µmol/L single concentration, cited from earlier work
[14] = molecular target: panel of 255 wild-type kinases (Homo sapiens, UniProt Q16654); details: kinase PDHK4, 1 µmol/L single concentration, cited from earlier work
[15] = ref DOI: 10.1158/1535-7163.MCT-18-0877
[16] = ref DOI: 10.1371/journal.pone.0092146

Row | Structure (SMILES) | %-inhibition at 1 µmol/L, PKACα [1, 15] | %-inhibition at 1 µmol/L, DYRK1A [2, 15] | %-inhibition at 1 µmol/L, FGFR3 [3, 15] | %-inhibition at 1 µmol/L, PLK1 [4, 15] | %-inhibition, p38γ [5, 15] | %-inhibition AKT1 [6, 15] | %-inhibition CHK1 [7, 15] | %-inhibition CaMK1α [8, 15] | %-inhibition CDK6/CycD3 [9, 15] | %-inhibition at 1 µmol/L, CK1γ2 [10] | %-inhibition, MARK2 [11, 15] | %-inhibition, MAPKAPK5 [12, 15] | %-inhibition, PAK2 [13, 15] | %-inhibition at 1 µmol/L, PDHK4 [14, 15] | other results
1 | O=C(c1ccc(F)c(F)c1Nc1ccc(I)cc1F)N1CC(O)([C@@H]2CCCCN2)C1 [cobimetinib] | -10% | -5% | 5% | -1.08% | 2% | -7% | 9% | 9% | 0.129% | 2.37% | -6.58% | -1% | -17% | -1.13% | 
2 | CO[C@@H]1[C@H](N(C)C(=O)c2ccccc2)C[C@H]2O[C@]1(C)n1c3ccccc3c3c4c(c5c6ccccc6n2c5c31)C(=O)NC4 [midostaurin] | 93% |  |  | 6% | 7% |  | 68% |  | 1.81% | -2.45% |  | -2% |  | 1.09% | 
3 | C=CC(=O)N1CCC[C@@H](n2nc(-c3ccc(Oc4ccccc4)cc3)c3c(N)ncnc32)C1 [ibrutinib] | -11% | -3.54% | 82% | -2.28% | 3.51% | -9% | 10% | 14% | 4.32% | 1% | 2.67% | -2.44% | -6% |  | 
4 | C[C@@H](Oc1cc(-c2cnn(C3CCNCC3)c2)cnc1N)c1c(Cl)ccc(F)c1Cl [crizotinib] |  |  |  |  |  |  |  |  |  |  |  |  |  |  | %-inhibition at 1 µmol/L, PKACα [1, 16]: -6%; %-inhibition at 1 µmol/L, DYRK1A [2, 16]: -13%; %-inhibition at 1 µmol/L, FGFR3 [3, 16]: 43%; %-inhibition at 1 µmol/L, PLK1 [4, 16]: -3%; %-inhibition AKT1 [6, 16]: -7%; %-inhibition CHK1 [7, 16]: 10%; %-inhibition CaMK1α [8, 16]: 0.734%; %-inhibition CDK6/CycD3 [9, 16]: 0.0624%; %-inhibition, MARK2 [11, 16]: 26%; %-inhibition, MAPKAPK5 [12, 16]: -3.19%; %-inhibition, PAK2 [13, 16]: 5%; %-inhibition at 1 µmol/L, PDHK4 [14, 16]: -3.76%
5 | Cc1cc(Nc2ncc(Cl)c(Nc3ccccc3S(=O)(=O)C(C)C)n2)c(OC(C)C)cc1C1CCNCC1 [ceritinib] | -8% | 1.13% | 21% |  | 3.32% | -8% | 1.32% | 37% | 3.4% | 0.506% | 4% | -2.68% | -4.22% | 2.55% | 
6 | CC(C)(C)c1nc(-c2cccc(NS(=O)(=O)c3c(F)cccc3F)c2F)c(-c2ccnc(N)n2)s1 [dabrafenib] |  |  |  |  |  |  |  |  |  |  |  |  |  |  | %-inhibition at 1 µmol/L, DYRK1A [2, 16]: 16%; %-inhibition at 1 µmol/L, FGFR3 [3, 16]: 4.27%; %-inhibition at 1 µmol/L, PLK1 [4, 16]: -9%; %-inhibition, p38γ [5, 16]: 0.311%; %-inhibition, MARK2 [11, 16]: 2.85%; %-inhibition at 1 µmol/L, PDHK4 [14, 16]: -1%
7 | C=CC(=O)Nc1cc(Nc2nccc(-c3cn(C)c4ccccc34)n2)c(OC)cc1N(C)CCN(C)C [osimertinib] | -11% | 0.712% | 10% | -0.476% | 2.19% | -9% | 11% | 10% | 0.62% | 17% | 26% | 0.814% | -14% | 0.264% | 
8 | CC#CC(=O)N1CCC[C@H]1c1nc(-c2ccc(C(=O)Nc3ccccn3)cc2)c2c(N)nccn12 [acalabrutinib] | -5% | -4.57% | -1.31% | -2.57% | -1.74% | -6% | -7% | -4.29% | 3% | -7% | -9% | -1.87% | -5% | 0.391% | 
